ChEMBL document CHEMBL5604063, “ASAP - DENV-2 NS2B-NS3 protease fluorescence dose response” (2024)
Where “and” joins values, the source holds several entries; their conditions need not be identical. Equal entries are not always repeated.

Legend:
Genome polyprotein [1] = target: T1, Genome polyprotein (dengue virus type 2, UniProt P29990); assay type: functional, Thailand/16681/1984
Genome polyprotein [2] = target: T1, Genome polyprotein; assay type: functional, Thailand/16681/1984; remark: listed apart in the source

T1 sequence (P29990 1346-1475 limits assumed): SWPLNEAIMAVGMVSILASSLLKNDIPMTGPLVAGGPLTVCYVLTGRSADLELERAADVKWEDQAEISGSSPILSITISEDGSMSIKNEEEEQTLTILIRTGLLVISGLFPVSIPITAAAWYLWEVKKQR
T1 sequence (P29990 1476-2093 limits assumed): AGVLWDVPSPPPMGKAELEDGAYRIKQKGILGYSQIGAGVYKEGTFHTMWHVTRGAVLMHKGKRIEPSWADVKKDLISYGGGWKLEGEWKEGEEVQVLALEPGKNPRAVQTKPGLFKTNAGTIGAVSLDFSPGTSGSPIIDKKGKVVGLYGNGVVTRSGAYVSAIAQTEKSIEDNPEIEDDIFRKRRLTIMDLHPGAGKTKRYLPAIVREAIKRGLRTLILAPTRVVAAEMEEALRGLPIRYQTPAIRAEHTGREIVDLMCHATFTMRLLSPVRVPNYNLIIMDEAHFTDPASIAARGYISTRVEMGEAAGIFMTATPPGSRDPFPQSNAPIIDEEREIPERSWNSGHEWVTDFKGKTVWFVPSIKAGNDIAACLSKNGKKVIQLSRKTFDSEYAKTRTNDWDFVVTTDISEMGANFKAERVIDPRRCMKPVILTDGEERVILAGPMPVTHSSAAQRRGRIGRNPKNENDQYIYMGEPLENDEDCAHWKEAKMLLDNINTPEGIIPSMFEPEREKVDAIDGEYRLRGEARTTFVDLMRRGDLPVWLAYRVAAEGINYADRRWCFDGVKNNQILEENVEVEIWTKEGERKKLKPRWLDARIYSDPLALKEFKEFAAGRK

For `O=C(Nc1ccc2c(c1)CNC2)c1cc(Cl)cc2cn[nH]c12`, the IC50 (Genome polyprotein [1]) was > 100 µM and the IC50 (Genome polyprotein [2]) was > 99.5 µM.
`COc1nn(C)cc1-c1nc2c(C(=O)Nc3ccc4c(c3)CNC4)cc(Cl)cc2[nH]1` was tested, and the IC50 (Genome polyprotein [1]) was > 100 µM and the IC50 (Genome polyprotein [2]) was > 99.5 µM.
In the case of `O=C(Cc1ccc2ncsc2c1)Nc1ccc2c(c1)CNC2`, the IC50 (Genome polyprotein [1]) is reported as > 100 µM and the IC50 (Genome polyprotein [2]) is reported as > 99.5 µM.
`O=C(Nc1ccc2c(c1)CNC2)c1ccc2sncc2c1` was tested, and the IC50 (Genome polyprotein [1]) was > 100 µM and the IC50 (Genome polyprotein [2]) was > 99.5 µM.
For `O=C(Nc1ccc2c(c1)CNC2)c1cc(Cl)ccc1-n1cncn1`, the IC50 (Genome polyprotein [1]) was > 100 µM and the IC50 (Genome polyprotein [2]) was > 99.5 µM.
`Clc1cc([C@@H]2C[C@H]2c2cccc(C3CCNCC3)c2)c2cn[nH]c2c1` was tested, and the IC50 (Genome polyprotein [1]) was 9.27 µM and 13.3 µM and the IC50 (Genome polyprotein [2]) was 7.93 µM and 6.82 µM and 6.33 µM.
For `Cc1nc(C2CC2)[nH]c1C(=O)Nc1cc(CCCN)ccn1`, the IC50 (Genome polyprotein [1]) was > 100 µM and the IC50 (Genome polyprotein [2]) was > 99.5 µM.
In the case of `Cc1c(C(=O)Nc2cc(-c3cccnc3)ccn2)cc(C2CC2)n1C`, the IC50 (Genome polyprotein [1]) is reported as 6.7 µM and 9.67 µM and the IC50 (Genome polyprotein [2]) is reported as 9.09 µM and 8.4 µM and 6.31 µM.
`O=C(Nc1ccc2c(c1)CNC2)c1cc(F)cc2[nH]cnc12` was tested, and the IC50 (Genome polyprotein [1]) was > 100 µM and the IC50 (Genome polyprotein [2]) was 99 µM.
In the case of `CC1CCN(CC[C@H]2CCCN2C(=O)Nc2ccc3c(c2)CNC3)CC1`, the IC50 (Genome polyprotein [1]) is reported as > 100 µM and the IC50 (Genome polyprotein [2]) is reported as > 99.5 µM.
In the case of `CC(C)(C)OC(=O)N1Cc2cc(NC(=O)c3cc(Cl)cc4[nH]ncc34)cc(Br)c2C1`, the IC50 (Genome polyprotein [1]) is reported as > 100 µM and the IC50 (Genome polyprotein [2]) is reported as > 99.5 µM.
For `O=C(Nc1ccc2c(c1)CNC2)c1cccc(O)c1`, the IC50 (Genome polyprotein [1]) was > 100 µM and the IC50 (Genome polyprotein [2]) was > 99.5 µM.
In the case of `CCOCC1(c2nc3c(C(=O)Nc4ccc5c(c4)CNC5)cc(Cl)cc3[nH]2)CC1`, the IC50 (Genome polyprotein [1]) is reported as > 100 µM and the IC50 (Genome polyprotein [2]) is reported as 87.5 µM.
For `O=C(Nc1ccc2c(c1)CNC2)c1nc(Cl)nc2[nH]ccc12`, the IC50 (Genome polyprotein [1]) was > 100 µM and the IC50 (Genome polyprotein [2]) was > 99.5 µM.
`C=CC[C@H]1NCc2cc(NC(=O)c3cc(F)cc4[nH]ncc34)ccc21` was tested, and the IC50 (Genome polyprotein [1]) was 39 µM and the IC50 (Genome polyprotein [2]) was 72.9 µM.
With `CN(C)C(=O)N1Cc2ccc(NC(=O)c3cc(Cl)cc4[nH]ncc34)cc2C1` the IC50 (Genome polyprotein [1]) was > 100 µM and the IC50 (Genome polyprotein [2]) was > 99.5 µM.
`CC1=CC[C@H](c2cccc(-c3nn[nH]n3)c2)Nc2cc(Cl)ccc21` gave an IC50 (Genome polyprotein [1]) of 33.9 µM and an IC50 (Genome polyprotein [2]) of 69.6 µM.
In the case of `Cc1cc(C)n([C@H]2CCCN(C(=O)Nc3ccc4c(c3)CNC4)C2)n1`, the IC50 (Genome polyprotein [1]) is reported as > 100 µM and the IC50 (Genome polyprotein [2]) is reported as > 99.5 µM.
With `O=C(Nc1ccc2c(c1)CNC2)c1ncc(Cc2ccccc2)s1` the IC50 (Genome polyprotein [1]) was > 100 µM and the IC50 (Genome polyprotein [2]) was > 99.5 µM.
For `CC(C)(C)NC(=O)[C@H](Nc1ccc2c(c1)CNC2)c1cc(Cl)cc2[nH]ncc12`, the IC50 (Genome polyprotein [1]) was > 100 µM and the IC50 (Genome polyprotein [2]) was > 99.5 µM.
In the case of `NCc1cc(C=C2CC(C(=O)O)C2)cc(NC(=O)c2cc(Cl)cc(NC(=O)OCc3ccccc3)c2)c1` (stereo not drawn), the IC50 (Genome polyprotein [1]) is reported as > 100 µM and the IC50 (Genome polyprotein [2]) is reported as > 99.5 µM.
With `CC(C)Nc1c(-c2cc(Cl)cc3[nH]ncc23)nc2ccc3c(n12)CNC3` the IC50 (Genome polyprotein [1]) was > 100 µM and the IC50 (Genome polyprotein [2]) was > 99.5 µM.
In the case of `O=C(Nc1ccc2c(c1)CNC2)c1ccc(OC(F)(F)F)cc1`, the IC50 (Genome polyprotein [1]) is reported as > 100 µM and the IC50 (Genome polyprotein [2]) is reported as > 99.5 µM.
`NCCCc1ccnc(NC(=O)c2cc(C3CC3)[nH]n2)c1` was tested, and the IC50 (Genome polyprotein [1]) was > 100 µM and the IC50 (Genome polyprotein [2]) was > 99.5 µM.
With `NCc1cc(CC(=O)O)cc([C@H]2C[C@@H]2c2cc(Cl)cc(NC(=O)OCc3ccccc3)c2)c1` the IC50 (Genome polyprotein [1]) was > 100 µM and the IC50 (Genome polyprotein [2]) was > 99.5 µM.
With `CN(C)C(=O)CCCc1nc2c(C(=O)Nc3ccc4c(c3)CNC4)cc(Cl)cc2[nH]1` the IC50 (Genome polyprotein [1]) was > 100 µM and the IC50 (Genome polyprotein [2]) was > 99.5 µM.
In the case of `O=C1Cc2ccc(NC(=O)c3cc(F)cc4[nH]ncc34)cc2N1`, the IC50 (Genome polyprotein [1]) is reported as > 100 µM and the IC50 (Genome polyprotein [2]) is reported as > 99.5 µM.
For `O=C(Nc1ccc2c(c1)CNC2)c1cccc2ncccc12`, the IC50 (Genome polyprotein [1]) was > 100 µM and the IC50 (Genome polyprotein [2]) was > 99.5 µM.
With `O=C(Nc1nc(O)c2c(n1)CNC2)c1cc(Cl)cc2[nH]ncc12` the IC50 (Genome polyprotein [1]) was > 100 µM and the IC50 (Genome polyprotein [2]) was > 99.5 µM.
In the case of `O=C(Nc1ccc2c(c1)CNC2)c1ccc2ncccc2c1`, the IC50 (Genome polyprotein [1]) is reported as > 100 µM and the IC50 (Genome polyprotein [2]) is reported as > 99.5 µM.
`Clc1cccc([C@H](C#Cc2ccccc2)Nc2ccc3c(c2)CNC3)c1` was tested, and the IC50 (Genome polyprotein [1]) was > 100 µM and the IC50 (Genome polyprotein [2]) was > 99.5 µM.
With `O=C(Nc1ccc2c(c1)CNC2)c1cc(F)cc2[nH]c(-c3ccccc3)nc12` the IC50 (Genome polyprotein [1]) was 5.75 µM and the IC50 (Genome polyprotein [2]) was 7.96 µM and 7.05 µM.
With `C[C@](C#N)(Nc1ccc2c(c1)CNC2)c1cccc(Cl)c1` the IC50 (Genome polyprotein [1]) was > 100 µM and the IC50 (Genome polyprotein [2]) was > 99.5 µM.
For `Clc1cc([C@H](C#CC2CC2)Nc2ccc3c(c2)CNC3)c2cn[nH]c2c1`, the IC50 (Genome polyprotein [1]) was > 100 µM and the IC50 (Genome polyprotein [2]) was > 99.5 µM.
